Assay: Antagonist activity at human EGFP-fused CCR3 expressed in mouse L1.2 cells assessed as inhibition of CCL11-induced chemotaxis measured after 1.5 hrs by PicoGreen dsDNA reagent-based assay

Compound `C/C=C/c1cc(OC)c2c(c1)[C@@H](C)[C@H](c1cc(OC)c(O)c(OC)c1)O2` has an EC50 of 1600 nM.
`C=CCc1cc(OC)c(O[C@@H](C)[C@H](OC(C)=O)c2ccc(OC)c(OC)c2)c(OC)c1` showed an EC50 of 1400 nM.
Work on `C=CCc1cc(OC)c(O[C@H](C)[C@@H](O)c2cc(OC)c(O)c(OC)c2)c(OC)c1` yielded an EC50 of 1500 nM.
With `COC(=O)[C@H](Cc1ccc([N+](=O)[O-])cc1)NC(=O)c1cccc2ccccc12` [(S)-2-[(Naphthalene-1-carbonyl)-amino]-3-(4-nitro-phenyl)-propionic acid methyl ester] the EC50 was 780 nM.

From BindingDB's records for doi:10.1021/acs.jnatprod.6b00262 (Kindai University, 2016)
